Reference: PMC10999543, “Identification of kinase modulators as host-directed therapeutics against intracellular methicillin-resistant Staphylococcus aureus” (Frontiers in Cellular and Infection Microbiology, 2024)
Read-outs that look alike come from different tables or passages of the source.

What was measured:
[1] = tested on: intracellular MRSA; assay type: cell-based, Staphylococcus aureus; settings: for %GFP+ rep 1 / z-scoreMRSA+ rep 1: replicate 1; for %GFP+ rep 2 / z-scoreMRSA+ rep 2: replicate 2; for %GFP+ rep 3 / z-scoreMRSA+ rep 3: replicate 3; for z-scoreMRSA+ mean: mean of 3 replicates; on %GFP+ rep 1: test concentration or dose not given here; on %GFP+ rep 2: test concentration or dose not given here; on %GFP+ rep 3: test concentration or dose not given here; on effect: test concentration or dose not given here; on z-scoreMRSA+ mean: test concentration or dose not given here; on z-scoreMRSA+ rep 1: test concentration or dose not given here; on z-scoreMRSA+ rep 2: test concentration or dose not given here; on z-scoreMRSA+ rep 3: test concentration or dose not given here
Procedure, shortened: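 Values are z-scores: GFP-positive HeLa percentage and event count per well against plate statistics, minus the mean DMSO z-score. Wells deviating two-fold from controls were left out of plate means. Infection was at a mean MOI of 6.8, with an overnight compound exposure.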

[2] = tested on: HeLa cells; test: Compound screen by flow cytometry: HeLa cell count as surrogate readout of cell viability (z-scoreHeLa); assay type: cell-based, human; settings: for cell count rep 1 / z-scoreHeLa rep 1: replicate 1; for cell count rep 2 / z-scoreHeLa rep 2: replicate 2; for cell count rep 3 / z-scoreHeLa rep 3: replicate 3; for z-scoreHeLa mean: mean of 3 replicates; on all read-outs here: test concentration or dose not given here
Procedure, shortened: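 The viability surrogate was the count of fixed HeLa cells by flow cytometry, converted to z-scores against DMSO controls with values deviating two-fold excluded. Before counting, cells had been infected with MRSA for 1 h and cleared of extracellular bacteria with gentamicin. They were then exposed overnight to kinase inhibitors in triplicate.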

[3] = PKIS compound screen raw data, MRSA-infected HeLa cells
[4] = PKIS compound screen, MRSA-infected HeLa cells
[5] = PKIS compound screen, Yes/No call
[6] = PKIS compound screen, Yes/No call (effect without cell death)
[7] = PKIS compound screen, Yes/No call on z-scoreMRSA+
[8] = PKIS compounds raw data, MRSA-infected HeLa cells
[9] = PKIS compound screen raw data, HeLa cell count
[10] = PKIS compound screen, HeLa cell count
[11] = PKIS compound screen, Yes/No call on z-scoreHeLa
[12] = PKIS compounds raw data, HeLa cell count
[13] = Yes/No: effect without cell death
[14] = compound screen, MRSA-infected HeLa cells
[15] = compound screen, HeLa cell count

| SMILES | %GFP+ rep 1 [1, 3] | %GFP+ rep 2 [1, 3] | %GFP+ rep 3 [1, 3] | z-scoreMRSA+ mean [1, 4] | z-scoreMRSA+ rep 1 [1, 4] | z-scoreMRSA+ rep 2 [1, 4] | z-scoreMRSA+ rep 3 [1, 4] | hit [1, 6] | effect [1, 7] | %GFP+ rep 1 [1, 8] | %GFP+ rep 2 [1, 8] | %GFP+ rep 3 [1, 8] | cell count rep 1 [2, 9] | cell count rep 2 [2, 9] | cell count rep 3 [2, 9] | z-scoreHeLa mean [2, 10] | z-scoreHeLa rep 1 [2, 10] | z-scoreHeLa rep 2 [2, 10] | z-scoreHeLa rep 3 [2, 10] | cell death [2, 11] | also measured |
| --- | --- | --- | --- | --- | --- | --- | --- | --- | --- | --- | --- | --- | --- | --- | --- | --- | --- | --- | --- | --- | --- |
| Cc1cccc(Cn2ccn3c(=O)cc(N4CCOCC4)nc23)c1 [GSK2297542A] | 14.5% | 15.7% | 16.8% | -1.12 | -1.14 | -1.01 | -1.21 | No | No | 23.8% | 25.2% | 24.5% | 36714 | 30989 | 25952 | 1.15 | 1.10 | 0.98 | 1.37 | No | effect [1, 5]: No; z-scoreMRSA+ mean ([1]; PKIS compound screen): -0.44; z-scoreMRSA+ rep 1 ([1]; PKIS compound screen): -0.63; z-scoreMRSA+ rep 2 ([1]; PKIS compound screen): -0.16; z-scoreMRSA+ rep 3 ([1]; PKIS compound screen): -0.51; cell death [2, 5]: No; z-scoreHeLa mean ([2]; PKIS compound screen): 0.56; z-scoreHeLa rep 1 ([2]; PKIS compound screen): 0.45; z-scoreHeLa rep 2 ([2]; PKIS compound screen): 0.33; z-scoreHeLa rep 3 ([2]; PKIS compound screen): 0.91; cell count rep 1 [2, 12]: 6792; cell count rep 2 [2, 12]: 6500; cell count rep 3 [2, 12]: 7025 |
| O=c1cc(N2CCOCC2)nc2n(Cc3cccc4ccccc34)ccn12 [GSK2333389A] | 11.3% | 12.1% | 12.6% | -2.07 | -2.08 | -1.93 | -2.19 | Yes | Yes | – | – | – | 20901 | 33281 | 38349 | -0.17 | 0.12 | -0.28 | -0.35 | No | – |
| Cc1cn2c(=O)cc(N3CCOCC3)nc2n1Cc1cccc(Cl)c1Cl [GSK2334006A] | 10.9% | 13.1% | 15.5% | -1.80 | -2.11 | -1.72 | -1.57 | No | No | 23.2% | 20.8% | 27.2% | 38408 | 33023 | 28416 | 1.52 | 1.39 | 1.33 | 1.85 | No | effect [1, 5]: No; z-scoreMRSA+ mean ([1]; PKIS compound screen): -0.59; z-scoreMRSA+ rep 1 ([1]; PKIS compound screen): -0.75; z-scoreMRSA+ rep 2 ([1]; PKIS compound screen): -1.01; z-scoreMRSA+ rep 3 ([1]; PKIS compound screen): -0.0127; cell death [2, 5]: No; z-scoreHeLa mean ([2]; PKIS compound screen): -0.32; z-scoreHeLa rep 1 ([2]; PKIS compound screen): -0.18; z-scoreHeLa rep 2 ([2]; PKIS compound screen): -0.55; z-scoreHeLa rep 3 ([2]; PKIS compound screen): -0.25; cell count rep 1 [2, 12]: 5750; cell count rep 2 [2, 12]: 5179; cell count rep 3 [2, 12]: 5208 |
| Cc1nn2c(=O)cc(N3CCOCC3)nc2n1Cc1cccc(Cl)c1Cl [GSK2342769A] | 10.7% | 10.7% | 15.0% | -2.08 | -2.16 | -2.38 | -1.70 | No and Yes | Yes | 23.6% | 23.2% | 24.3% | 31673 | 24146 | 21902 | 0.21 | 0.25 | -0.19 | 0.58 | No | effect [1, 5]: No; z-scoreMRSA+ mean ([1]; PKIS compound screen): -0.59; z-scoreMRSA+ rep 1 ([1]; PKIS compound screen): -0.67; z-scoreMRSA+ rep 2 ([1]; PKIS compound screen): -0.54; z-scoreMRSA+ rep 3 ([1]; PKIS compound screen): -0.55; cell death [2, 5]: No; z-scoreHeLa mean ([2]; PKIS compound screen): -1.49; z-scoreHeLa rep 1 ([2]; PKIS compound screen): -1.68; z-scoreHeLa rep 2 ([2]; PKIS compound screen): -1.59; z-scoreHeLa rep 3 ([2]; PKIS compound screen): -1.19; cell count rep 1 [2, 12]: 3246; cell count rep 2 [2, 12]: 3614; cell count rep 3 [2, 12]: 3721 |
| O=c1cc(N2CCOCC2)nc2n(Cc3cccc(Cl)c3Cl)c(C3CC3)nn12 [GSK2358994A] | 12.1% | 13.2% | 14.9% | -1.74 | -1.78 | -1.70 | -1.73 | No | No | – | – | – | 42747 | 35107 | 37884 | 2.50 | 2.13 | 1.69 | 3.69 | No | – |
| CNc1nc(-c2ccc3c(N)n[nH]c3c2)cc(N2C[C@@H](C(=O)NC3CCCCC3)OC[C@H]2C)n1 [GSK2375584A] | 21.4% | 23.1% | 26.2% | – | – | – | – | – | – | – | – | – | 30717 | 29074 | 21029 | – | – | – | – | – | effect ([1]; Yes/No call from z-scoreMRSA+): No; hit [1, 13]: No; z-scoreMRSA+ mean [1, 14]: 1.02; z-scoreMRSA+ rep 1 [1, 14]: 0.70; z-scoreMRSA+ rep 2 [1, 14]: 1.01; z-scoreMRSA+ rep 3 [1, 14]: 1.36; cell death ([2]; Yes/No call from z-scoreHeLa): No; z-scoreHeLa mean [2, 15]: 0.38; z-scoreHeLa rep 1 [2, 15]: 0.09; z-scoreHeLa rep 2 [2, 15]: 0.65; z-scoreHeLa rep 3 [2, 15]: 0.41 |
| Nc1nccc2scc(-c3ccc4c(c3)CCN4C(=O)Cc3ccccc3)c12 [GSK2576924A] | 25.5% | 24.3% | 22.9% | – | – | – | – | – | – | – | – | – | 3006 | 3066 | 3447 | – | – | – | – | – | effect ([1]; Yes/No call from z-scoreMRSA+): No; hit [1, 13]: No; z-scoreMRSA+ mean [1, 14]: 0.22; z-scoreMRSA+ rep 1 [1, 14]: 0.05; z-scoreMRSA+ rep 2 [1, 14]: 0.41; z-scoreMRSA+ rep 3 [1, 14]: 0.21; cell death ([2]; Yes/No call from z-scoreHeLa): No; z-scoreHeLa mean [2, 15]: -1.02; z-scoreHeLa rep 1 [2, 15]: -0.97; z-scoreHeLa rep 2 [2, 15]: -0.95; z-scoreHeLa rep 3 [2, 15]: -1.13 |
| Nc1ncc(-c2ccncc2)c2scc(-c3ccc4c(c3)CCN4C(=O)Cc3ccccc3)c12 [GSK2592465A] | 23.8% | 25.0% | 22.8% | – | – | – | – | – | – | – | – | – | 4912 | 4633 | 5392 | – | – | – | – | – | effect ([1]; Yes/No call from z-scoreMRSA+): No; hit [1, 13]: No; z-scoreMRSA+ mean [1, 14]: 0.14; z-scoreMRSA+ rep 1 [1, 14]: -0.34; z-scoreMRSA+ rep 2 [1, 14]: 0.58; z-scoreMRSA+ rep 3 [1, 14]: 0.18; cell death ([2]; Yes/No call from z-scoreHeLa): No; z-scoreHeLa mean [2, 15]: 0.25; z-scoreHeLa rep 1 [2, 15]: 0.40; z-scoreHeLa rep 2 [2, 15]: 0.26; z-scoreHeLa rep 3 [2, 15]: 0.10 |
| Cn1cc(-c2cnc(N)c3c(-c4ccc5c(c4)CCN5C(=O)Cc4ccccc4)csc23)cn1 [GSK2593074A] | – | – | – | – | – | – | – | – | – | 24.8% | 21.4% | 19.2% | – | – | – | – | – | – | – | – | effect ([1]; Yes/No call from z-scoreMRSA+): No; hit [1, 13]: No; z-scoreMRSA+ mean [1, 14]: 2.45; z-scoreMRSA+ rep 1 [1, 14]: 3.72; z-scoreMRSA+ rep 2 [1, 14]: 2.64; z-scoreMRSA+ rep 3 [1, 14]: 0.98; cell count rep 1 [2, 12]: 857; cell count rep 2 [2, 12]: 369; cell count rep 3 [2, 12]: 1620; cell death ([2]; Yes/No call from z-scoreHeLa): Yes; z-scoreHeLa mean [2, 15]: -3.02; z-scoreHeLa rep 1 [2, 15]: -3.54; z-scoreHeLa rep 2 [2, 15]: -2.95; z-scoreHeLa rep 3 [2, 15]: -2.56 |
| Cc1ccccc1CC(=O)N1CCc2cc(-c3cn(C)c4ncnc(N)c34)ccc21 [GSK2603346A] | 20.6% | 20.8% | 20.5% | 0.59 | 0.87 | 0.68 | 0.22 | No | No | – | – | – | 19984 | 27840 | 38532 | -0.54 | -0.02 | -1.30 | -0.32 | No | – |
